The target in test [1] is Calcium/calmodulin-dependent protein kinase type II subunit delta (Homo sapiens, UniProt Q13557).
The target in test [2] is Serine/threonine-protein kinase N1 (Homo sapiens, UniProt Q16512).
Test [3] concerns the target T1, General transcription and DNA repair factor IIH helicase subunit XPD (Homo sapiens, UniProt P18074).
T1 sequence (P18074 whole entry): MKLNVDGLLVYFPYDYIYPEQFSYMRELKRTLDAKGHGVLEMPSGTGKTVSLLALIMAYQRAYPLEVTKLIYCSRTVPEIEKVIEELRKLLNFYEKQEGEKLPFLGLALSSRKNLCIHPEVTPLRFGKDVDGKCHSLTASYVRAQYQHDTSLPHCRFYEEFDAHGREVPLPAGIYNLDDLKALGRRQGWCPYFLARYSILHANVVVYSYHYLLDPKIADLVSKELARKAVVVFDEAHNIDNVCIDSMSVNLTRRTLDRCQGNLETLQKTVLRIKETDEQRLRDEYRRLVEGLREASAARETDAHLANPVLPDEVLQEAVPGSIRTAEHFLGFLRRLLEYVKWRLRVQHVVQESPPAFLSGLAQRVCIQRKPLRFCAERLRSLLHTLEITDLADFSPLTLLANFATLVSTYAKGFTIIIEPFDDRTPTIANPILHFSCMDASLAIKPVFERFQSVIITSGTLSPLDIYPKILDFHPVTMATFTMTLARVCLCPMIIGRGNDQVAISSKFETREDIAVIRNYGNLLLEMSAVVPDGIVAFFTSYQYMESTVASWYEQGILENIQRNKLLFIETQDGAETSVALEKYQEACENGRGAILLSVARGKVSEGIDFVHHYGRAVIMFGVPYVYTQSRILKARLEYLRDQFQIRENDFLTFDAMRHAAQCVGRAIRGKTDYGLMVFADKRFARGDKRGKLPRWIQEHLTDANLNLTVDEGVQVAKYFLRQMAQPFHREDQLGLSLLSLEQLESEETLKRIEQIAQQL
The conditions noted are these: read-out: Kd apparent; k-562, colo 205, sk-n-be(2) and mv-4-11.

The next test deals with T2, TGF-beta receptor type-1 (Homo sapiens, UniProt P36897).
T2 sequence (P36897 whole entry): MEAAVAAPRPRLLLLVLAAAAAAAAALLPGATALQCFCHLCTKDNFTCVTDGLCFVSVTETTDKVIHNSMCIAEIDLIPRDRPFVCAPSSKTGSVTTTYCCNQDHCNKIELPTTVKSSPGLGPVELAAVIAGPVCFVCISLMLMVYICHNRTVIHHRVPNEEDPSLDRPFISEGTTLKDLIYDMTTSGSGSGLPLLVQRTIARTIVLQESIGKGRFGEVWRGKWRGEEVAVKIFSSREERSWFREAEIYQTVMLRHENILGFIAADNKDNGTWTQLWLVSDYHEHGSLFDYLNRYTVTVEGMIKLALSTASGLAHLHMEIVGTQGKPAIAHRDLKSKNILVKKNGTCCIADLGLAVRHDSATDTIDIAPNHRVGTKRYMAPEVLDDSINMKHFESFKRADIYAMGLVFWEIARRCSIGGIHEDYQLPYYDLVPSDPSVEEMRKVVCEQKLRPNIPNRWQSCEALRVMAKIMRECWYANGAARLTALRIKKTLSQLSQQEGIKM

Test [4] has as its target DnaJ homolog subfamily A member 1 (Homo sapiens, UniProt P31689).
For test [5], the target named is Serine/threonine-protein kinase MRCK alpha (Homo sapiens, UniProt Q5VT25).
The target in test [6] is Serine/threonine-protein kinase 10 (Homo sapiens, UniProt O94804).
Test [7] concerns the target Serine/threonine-protein kinase PAK 2 (Homo sapiens, UniProt Q13177).
The target in test [8] is T3, Structural maintenance of chromosomes protein 1A (Homo sapiens, UniProt Q14683).
T3 sequence (Q14683 whole entry): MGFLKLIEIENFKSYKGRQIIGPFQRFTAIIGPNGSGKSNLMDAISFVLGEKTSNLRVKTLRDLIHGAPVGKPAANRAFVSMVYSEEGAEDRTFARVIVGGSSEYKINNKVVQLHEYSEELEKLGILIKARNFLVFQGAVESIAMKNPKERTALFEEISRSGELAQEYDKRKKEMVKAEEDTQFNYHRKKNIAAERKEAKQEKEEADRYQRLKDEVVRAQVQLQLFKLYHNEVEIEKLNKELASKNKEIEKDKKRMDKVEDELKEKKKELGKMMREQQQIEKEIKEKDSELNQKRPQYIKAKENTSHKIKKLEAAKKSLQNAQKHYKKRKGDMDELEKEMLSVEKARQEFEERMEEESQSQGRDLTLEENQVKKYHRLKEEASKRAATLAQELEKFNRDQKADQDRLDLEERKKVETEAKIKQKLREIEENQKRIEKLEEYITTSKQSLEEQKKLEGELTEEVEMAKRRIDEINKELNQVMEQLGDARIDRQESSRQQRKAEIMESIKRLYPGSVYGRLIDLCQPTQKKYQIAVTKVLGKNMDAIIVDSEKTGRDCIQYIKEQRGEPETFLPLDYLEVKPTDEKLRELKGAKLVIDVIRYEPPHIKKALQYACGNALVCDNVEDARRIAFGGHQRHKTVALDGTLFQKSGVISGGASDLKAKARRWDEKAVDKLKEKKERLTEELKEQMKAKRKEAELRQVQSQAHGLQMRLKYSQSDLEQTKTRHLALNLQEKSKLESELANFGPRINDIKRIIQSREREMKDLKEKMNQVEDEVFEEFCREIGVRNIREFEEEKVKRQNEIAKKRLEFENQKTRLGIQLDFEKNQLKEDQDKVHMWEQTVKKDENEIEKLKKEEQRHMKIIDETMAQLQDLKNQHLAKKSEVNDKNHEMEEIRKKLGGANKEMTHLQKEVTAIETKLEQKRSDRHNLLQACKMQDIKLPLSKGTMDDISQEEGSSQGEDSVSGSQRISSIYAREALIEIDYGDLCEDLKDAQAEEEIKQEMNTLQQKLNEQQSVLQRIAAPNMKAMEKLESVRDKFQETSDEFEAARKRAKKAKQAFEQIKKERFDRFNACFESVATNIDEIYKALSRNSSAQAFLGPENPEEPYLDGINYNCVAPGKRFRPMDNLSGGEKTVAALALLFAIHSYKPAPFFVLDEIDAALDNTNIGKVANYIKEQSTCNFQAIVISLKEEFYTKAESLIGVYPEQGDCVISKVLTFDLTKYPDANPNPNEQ

The next test deals with Wee1-like protein kinase (Homo sapiens, UniProt P30291).

Molecules are shown by their SMILES. The source made the active and inactive calls. Cut-off read from the data, not from the text of the source, for most assays here: actives have a measured Kd and inactives only a lower limit.
Note: in the data inactive means no Kd found up to 30 µM.

Chain of Serine/threonine-protein kinase N1 (Q16512 whole entry): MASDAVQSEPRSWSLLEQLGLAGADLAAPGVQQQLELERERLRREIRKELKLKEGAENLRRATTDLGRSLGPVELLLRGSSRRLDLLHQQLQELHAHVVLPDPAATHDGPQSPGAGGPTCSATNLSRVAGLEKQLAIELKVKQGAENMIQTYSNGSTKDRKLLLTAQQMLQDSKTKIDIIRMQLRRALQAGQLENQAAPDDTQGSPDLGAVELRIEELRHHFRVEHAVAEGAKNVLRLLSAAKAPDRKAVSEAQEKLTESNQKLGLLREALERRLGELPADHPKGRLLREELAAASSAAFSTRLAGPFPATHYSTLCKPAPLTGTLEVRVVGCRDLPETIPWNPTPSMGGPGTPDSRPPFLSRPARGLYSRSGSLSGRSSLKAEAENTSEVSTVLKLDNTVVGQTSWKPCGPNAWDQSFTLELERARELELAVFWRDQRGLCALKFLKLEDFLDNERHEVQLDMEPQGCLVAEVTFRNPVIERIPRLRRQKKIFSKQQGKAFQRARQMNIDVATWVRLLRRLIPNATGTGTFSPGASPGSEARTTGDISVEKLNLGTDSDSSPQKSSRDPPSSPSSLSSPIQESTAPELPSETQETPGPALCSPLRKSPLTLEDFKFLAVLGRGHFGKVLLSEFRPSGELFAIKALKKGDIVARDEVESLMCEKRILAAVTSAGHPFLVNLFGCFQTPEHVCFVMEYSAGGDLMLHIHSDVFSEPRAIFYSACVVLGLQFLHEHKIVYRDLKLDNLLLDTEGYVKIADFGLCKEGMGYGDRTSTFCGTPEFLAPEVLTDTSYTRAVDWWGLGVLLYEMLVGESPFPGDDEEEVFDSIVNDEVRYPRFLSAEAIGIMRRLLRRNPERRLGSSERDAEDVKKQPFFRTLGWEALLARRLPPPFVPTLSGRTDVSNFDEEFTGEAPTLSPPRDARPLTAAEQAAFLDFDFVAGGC
Chain of Wee1-like protein kinase (P30291 whole entry): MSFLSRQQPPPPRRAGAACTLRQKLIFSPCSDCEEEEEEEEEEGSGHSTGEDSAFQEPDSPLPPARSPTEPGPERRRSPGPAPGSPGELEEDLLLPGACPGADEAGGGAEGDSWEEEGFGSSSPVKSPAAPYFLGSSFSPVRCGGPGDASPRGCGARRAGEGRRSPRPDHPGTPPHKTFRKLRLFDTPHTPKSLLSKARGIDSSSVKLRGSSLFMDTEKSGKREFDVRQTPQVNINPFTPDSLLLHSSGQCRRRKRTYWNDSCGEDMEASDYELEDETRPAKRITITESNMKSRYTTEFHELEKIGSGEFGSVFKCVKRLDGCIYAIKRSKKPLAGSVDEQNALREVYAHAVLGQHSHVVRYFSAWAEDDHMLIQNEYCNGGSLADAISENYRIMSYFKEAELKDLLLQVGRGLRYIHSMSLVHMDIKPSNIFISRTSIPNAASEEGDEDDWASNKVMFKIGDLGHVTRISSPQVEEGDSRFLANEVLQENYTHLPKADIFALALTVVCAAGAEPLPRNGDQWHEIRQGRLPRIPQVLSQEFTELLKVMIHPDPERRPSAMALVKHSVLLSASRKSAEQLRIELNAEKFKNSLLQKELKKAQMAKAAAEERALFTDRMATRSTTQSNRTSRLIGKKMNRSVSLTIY
Chain of Calcium/calmodulin-dependent protein kinase type II subunit delta (Q13557 whole entry): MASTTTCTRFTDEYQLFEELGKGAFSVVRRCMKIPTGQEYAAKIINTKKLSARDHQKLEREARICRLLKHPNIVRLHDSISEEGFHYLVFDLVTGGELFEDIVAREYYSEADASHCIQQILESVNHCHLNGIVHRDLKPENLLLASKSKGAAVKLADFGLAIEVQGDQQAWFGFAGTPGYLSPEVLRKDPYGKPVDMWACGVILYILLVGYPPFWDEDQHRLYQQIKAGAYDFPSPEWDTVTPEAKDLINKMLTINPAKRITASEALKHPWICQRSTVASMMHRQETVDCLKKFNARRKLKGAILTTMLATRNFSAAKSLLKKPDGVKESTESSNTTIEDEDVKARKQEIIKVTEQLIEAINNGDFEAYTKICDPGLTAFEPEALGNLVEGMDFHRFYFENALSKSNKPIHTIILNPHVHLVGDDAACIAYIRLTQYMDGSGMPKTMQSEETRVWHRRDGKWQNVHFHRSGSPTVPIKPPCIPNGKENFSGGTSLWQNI
Chain of Serine/threonine-protein kinase 10 (O94804 whole entry): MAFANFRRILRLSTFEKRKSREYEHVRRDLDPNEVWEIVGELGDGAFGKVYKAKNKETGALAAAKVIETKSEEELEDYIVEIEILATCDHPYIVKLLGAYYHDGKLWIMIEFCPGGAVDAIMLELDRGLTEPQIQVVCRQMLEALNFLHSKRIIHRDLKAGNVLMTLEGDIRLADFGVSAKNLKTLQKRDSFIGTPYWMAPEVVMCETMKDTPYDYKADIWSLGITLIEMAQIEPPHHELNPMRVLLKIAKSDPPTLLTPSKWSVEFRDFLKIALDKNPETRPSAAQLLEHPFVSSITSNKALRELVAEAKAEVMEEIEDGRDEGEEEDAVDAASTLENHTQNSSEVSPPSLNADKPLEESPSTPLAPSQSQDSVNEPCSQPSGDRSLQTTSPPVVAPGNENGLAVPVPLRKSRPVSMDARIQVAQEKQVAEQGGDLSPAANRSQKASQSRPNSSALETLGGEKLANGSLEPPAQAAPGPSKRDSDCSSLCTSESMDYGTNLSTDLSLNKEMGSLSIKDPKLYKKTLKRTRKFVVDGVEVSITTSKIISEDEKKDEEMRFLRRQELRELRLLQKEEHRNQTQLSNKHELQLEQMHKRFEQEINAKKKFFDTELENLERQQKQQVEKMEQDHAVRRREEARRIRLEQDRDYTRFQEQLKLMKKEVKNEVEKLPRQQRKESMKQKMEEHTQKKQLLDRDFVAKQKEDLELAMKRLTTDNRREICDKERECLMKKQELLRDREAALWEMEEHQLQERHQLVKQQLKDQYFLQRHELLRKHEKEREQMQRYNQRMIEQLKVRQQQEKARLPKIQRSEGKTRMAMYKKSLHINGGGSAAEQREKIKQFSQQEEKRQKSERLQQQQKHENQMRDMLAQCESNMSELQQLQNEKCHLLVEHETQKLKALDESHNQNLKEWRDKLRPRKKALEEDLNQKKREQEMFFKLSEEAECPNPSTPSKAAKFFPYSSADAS
Chain of Serine/threonine-protein kinase MRCK alpha (Q5VT25 whole entry): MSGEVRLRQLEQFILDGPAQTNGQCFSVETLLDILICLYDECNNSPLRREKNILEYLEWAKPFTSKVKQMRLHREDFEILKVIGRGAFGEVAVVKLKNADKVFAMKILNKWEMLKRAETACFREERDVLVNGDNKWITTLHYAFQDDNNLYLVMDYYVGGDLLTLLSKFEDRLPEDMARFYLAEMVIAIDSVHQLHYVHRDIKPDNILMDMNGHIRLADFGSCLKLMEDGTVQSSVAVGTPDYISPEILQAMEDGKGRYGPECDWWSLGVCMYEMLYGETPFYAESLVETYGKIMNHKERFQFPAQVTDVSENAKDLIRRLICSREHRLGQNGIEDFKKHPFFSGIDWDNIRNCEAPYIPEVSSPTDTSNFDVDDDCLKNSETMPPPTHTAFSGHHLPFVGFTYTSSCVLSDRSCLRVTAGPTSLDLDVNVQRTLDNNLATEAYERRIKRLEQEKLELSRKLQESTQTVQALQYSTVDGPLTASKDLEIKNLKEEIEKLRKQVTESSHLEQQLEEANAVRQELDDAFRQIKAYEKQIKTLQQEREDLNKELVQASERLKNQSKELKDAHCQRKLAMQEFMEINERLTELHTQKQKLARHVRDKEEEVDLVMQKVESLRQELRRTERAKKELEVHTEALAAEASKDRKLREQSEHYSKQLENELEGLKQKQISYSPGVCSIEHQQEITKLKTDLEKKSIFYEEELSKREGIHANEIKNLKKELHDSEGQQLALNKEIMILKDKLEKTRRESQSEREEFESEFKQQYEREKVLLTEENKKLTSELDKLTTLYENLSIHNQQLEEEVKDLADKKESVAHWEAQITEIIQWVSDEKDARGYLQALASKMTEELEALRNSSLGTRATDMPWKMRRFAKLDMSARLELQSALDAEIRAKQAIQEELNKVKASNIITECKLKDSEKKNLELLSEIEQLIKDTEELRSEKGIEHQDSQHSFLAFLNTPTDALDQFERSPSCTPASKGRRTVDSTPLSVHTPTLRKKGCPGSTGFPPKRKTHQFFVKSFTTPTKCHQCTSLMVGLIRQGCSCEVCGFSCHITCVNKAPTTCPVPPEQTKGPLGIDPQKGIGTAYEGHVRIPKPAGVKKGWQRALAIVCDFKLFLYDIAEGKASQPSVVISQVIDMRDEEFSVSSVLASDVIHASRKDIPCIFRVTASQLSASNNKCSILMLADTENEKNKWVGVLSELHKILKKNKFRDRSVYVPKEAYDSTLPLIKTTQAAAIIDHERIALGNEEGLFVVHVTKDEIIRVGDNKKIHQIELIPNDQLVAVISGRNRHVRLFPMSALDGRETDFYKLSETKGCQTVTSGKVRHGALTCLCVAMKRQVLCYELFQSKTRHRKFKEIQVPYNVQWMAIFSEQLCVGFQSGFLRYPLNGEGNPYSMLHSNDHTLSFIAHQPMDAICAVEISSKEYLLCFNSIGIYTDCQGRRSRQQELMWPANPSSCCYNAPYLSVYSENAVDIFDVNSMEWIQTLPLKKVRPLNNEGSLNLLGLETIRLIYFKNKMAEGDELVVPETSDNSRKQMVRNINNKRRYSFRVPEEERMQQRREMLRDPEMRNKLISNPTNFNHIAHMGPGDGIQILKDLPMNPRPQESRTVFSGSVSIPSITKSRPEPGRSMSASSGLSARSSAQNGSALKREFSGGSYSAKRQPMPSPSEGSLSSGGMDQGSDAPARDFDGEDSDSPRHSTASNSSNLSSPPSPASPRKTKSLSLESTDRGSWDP

On to `C=CCn1c(=O)c2cnc(Nc3ccc(N4CCN(C)CC4)cc3)nc2n1-c1cccc(C(C)(C)O)n1` [ADAVOSERTIB], for which the Kd (in test [1]; in [2]; in test [3]; at TGF-beta receptor type-1; in test [4]; in test [5]) was > 30 µM (inactive) each time. For the same molecule, the Kd in [6], in test [7] and in test [8] was > 30 µM (inactive) throughout.

For `C=CCN(/C=C1/C(=O)O[C@H](COC)[C@@]2(C)C1=C(O)C(=O)C1=C2[C@H](OC(C)=O)C[C@]2(C)C(=O)CC[C@@H]12)CC=C` [SONOLISIB], the Kd (in test [1]; in [2]; in test [3]; at TGF-beta receptor type-1; in [4]; in test [5]) was > 30 µM (inactive) in each case. The Kd (in test [6]; in test [7]; on Wee1-like protein kinase) was > 30 µM (inactive) in each case.

As for `O=c1[nH]c([C@@H]2CCCN2)nc2c1oc1ccc(Cl)cc12`, the Kd (in test [1]; in test [2]; in test [3]; at TGF-beta receptor type-1; in [4]; in test [5]) was > 30 µM (inactive) each time. In addition, the Kd (in test [6]; in [7]; on Wee1-like protein kinase) was > 30 µM (inactive) throughout.

`CNC(=O)c1ccc(Nc2ncc(C(F)(F)F)c(NCc3nccnc3N(C)S(C)(=O)=O)n2)cc1` [DEFACTINIB]: the Kd in test [1] was > 30 µM (inactive); in test [2], > 30 µM (inactive); in test [3], 2.26 µM (active); at TGF-beta receptor type-1, > 30 µM (inactive); in [4], > 30 µM (inactive); in [5], > 30 µM (inactive). For the same molecule, the Kd in test [6], in test [7] and in test [8] was > 30 µM (inactive) each time.

As for `CN(c1ncccc1CNc1nc(Nc2ccc3c(c2)CC(=O)N3)ncc1C(F)(F)F)S(C)(=O)=O` [PF-00562271], the Kd in test [2] was 7.96 µM (active); in test [3], 2.64 µM (active); on TGF-beta receptor type-1 it was > 30 µM (inactive); in [4], > 30 µM (inactive); in test [6], > 30 µM (inactive); in test [7] it was > 30 µM (inactive). In addition, the Kd (in test [8]; on Wee1-like protein kinase) was > 30 µM (inactive) each time.

Consider `c1cc(OCCN2CCCCC2)cc(-c2n[nH]c3ccc(-c4nc[nH]n4)cc23)c1` [CC-401], for which the Kd (in test [1]; in [2]; in test [3]; on TGF-beta receptor type-1; in test [4]; in test [5]) was > 30 µM (inactive) in each case. The Kd (in [6]; in test [7]; on Wee1-like protein kinase) was > 30 µM (inactive) each time.

`NC(=O)c1ccc(N(C(N)=O)c2c(F)cccc2F)nc1-c1ccc(F)cc1F` [VX-702]: the Kd (in test [1]; in [2]; in test [3]; at TGF-beta receptor type-1; in test [4]; in test [5]) was > 30 µM (inactive) each time. For the same molecule, the Kd (in [6]; in test [8]; at Wee1-like protein kinase) was > 30 µM (inactive) throughout.

For the molecule `CNC(=O)c1cc(COc2nnc(Nc3ccc(Cl)cc3)c3ccoc23)ccn1` [TELATINIB], the Kd (in test [1]; in [2]; in test [3]; at TGF-beta receptor type-1; in test [4]; in test [6]) was > 30 µM (inactive) in each case. Moreover, the Kd (in [7]; in [8]; at Wee1-like protein kinase) was > 30 µM (inactive) in each case.

Consider `O=S(=O)(c1cccc2cnccc12)N1CCCNCC1` [FASUDIL], for which the Kd is > 30 µM (inactive) in [1]; 0.841 µM (active) in test [2]; > 30 µM (inactive) in [3]; > 30 µM (inactive) at TGF-beta receptor type-1; > 30 µM (inactive) in test [4]; > 30 µM (inactive) in test [6]. Besides, the Kd (in [7]; in test [8]; on Wee1-like protein kinase) was > 30 µM (inactive) in each case.

`N#CCNC(=O)c1ccc(-c2ccnc(Nc3ccc(N4CCOCC4)cc3)n2)cc1` [MOMELOTINIB]: the Kd (in [2]; at TGF-beta receptor type-1; in test [4]; in test [7]; in test [8]) was > 30 µM (inactive) throughout.

For the molecule `O=S(=O)(c1cccc2c(O)nccc12)N1CCCNCC1` [HYDROXYFASUDIL], the Kd in test [1] is > 30 µM (inactive); in test [2], 2.92 µM (active); in test [3], > 30 µM (inactive); in [4], > 30 µM (inactive); in [5] it was > 30 µM (inactive); in test [6], > 30 µM (inactive). Moreover, the Kd in test [7] and in test [8] was > 30 µM (inactive) in each case.

Turning to `CCc1nc(C(N)=O)c(Nc2ccc(N3CCC(N4CCN(C)CC4)CC3)c(OC)c2)nc1NC1CCOCC1` [GILTERITINIB], the Kd in test [1] is 0.207 µM (active); in test [2], > 30 µM (inactive); in test [3] it was > 30 µM (inactive); at TGF-beta receptor type-1 it was > 30 µM (inactive); in test [4], > 30 µM (inactive); in [5], > 30 µM (inactive). Besides, the values for the Kd (in [6]; in test [8]; on Wee1-like protein kinase) were 0.149 µM (active), > 30 µM (inactive) and > 30 µM (inactive), respectively.

The values are drawn from ChEMBL document CHEMBL3991601, “The target landscape of clinical kinase drugs” (Science, 2017).
